Measured values as given in US20240408226A1, “ANTIBODY DRUG CONJUGATE INTERMEDIATE CONTAINING SN38 AND ITS PREPARATION METHOD” (priority 2021, published 2024).

Assays:
[1] = Stability in PB (0.2 M) buffer at 37° C., quantified by LC-MS; type: physicochemical; settings: for Remaining fraction T/T0: 37° C.
Description: The system was placed in a constant temperature system of 37° C. […] The system was placed in a constant temperature system of 37° C.; • 4) 40 μL of sample was respectively taken at 0 h, 2 h, 4 h, 6 h, 24 h, and 48 h, added with 120 μL of acetonitrile, and centrifuged. The supernatant was taken for quantitative determination by LC-MS. • 5) Results processing.
The concentration at T=0 h in LC-MS was used as the reference, and the data were calculated by T/T0*100%. The results are shown in Table 3 and Table 4, respectively.

small cell lung cancer = small cell lung cancer in which multiple treatments had failed; cited from earlier work
[2] = test system: non-small cell lung cancer; settings: non-small cell lung cancer after failed chemotherapy, targeting therapy and PD-1 treatment; cited from earlier work
[3] = test system: triple-negative breast cancer; settings: clinical phase II; cited from earlier work

Row | Molecule | decomposed ([1]; alkaline conditions, at 24 h) | decomposed ([1]; neutral conditions, at 6 h) | decomposed ([1]; neutral conditions, at 24 h) | Remaining fraction T/T0 ([1]; pH = 6, 0 h, 60 μg/mL) | Remaining fraction T/T0 ([1]; pH = 6, 2 h, 60 μg/mL) | Remaining fraction T/T0 ([1]; pH = 6, 4 h, 60 μg/mL) | Remaining fraction T/T0 ([1]; pH = 6, 6 h, 60 μg/mL) | Remaining fraction T/T0 ([1]; pH = 6, 24 h, 60 μg/mL) | Remaining fraction T/T0 ([1]; pH = 6, 48 h, 60 μg/mL) | Remaining fraction T/T0 ([1]; pH = 7, 0 h) | Remaining fraction T/T0 ([1]; pH = 7, 2 h) | Remaining fraction T/T0 ([1]; pH = 7, 4 h) | Remaining fraction T/T0 ([1]; pH = 7, 6 h) | Remaining fraction T/T0 ([1]; pH = 7, 24 h) | Remaining fraction T/T0 ([1]; pH = 7, 48 h) | Remaining fraction T/T0 ([1]; pH = 8, 0 h) | Remaining fraction T/T0 ([1]; pH = 8, 2 h) | Remaining fraction T/T0 ([1]; pH = 8, 4 h) | Remaining fraction T/T0 ([1]; pH = 8, 6 h) | Remaining fraction T/T0 ([1]; pH = 8, 24 h) | other results
1 | CCc1c2c(nc3ccc(O)cc13)-c1cc3c(c(=O)n1C2)COC(=O)[C@@]3(CC)OC(=O)OCc1ccc(NC(=O)[C@@H](CCCCN)NC(=O)COCC(=O)NCCOCCOCCOCCOCCOCCOCCOCCOCCn2cc(CNC(=O)C3CCC(CN4C(=O)C=CC4=O)CC3)nn2)cc1 (stereo partly drawn) [CL2A-SN38] | 98% | 43% | 98% | 1 | 0.7479 | 0.6471 | 0.413 | 0.03593 | 0.02024 | 1 | 0.7038 | 0.5851 | 0.5715 | 0.02261 | 0.01906 | 1 | 0.6287 | 0.4347 | 0.3844 | 0.02532 | Remaining fraction T/T0 ([1]; pH = 8, 48 h): 0.01928; decomposed ([1]; pH of 6, after 48 h): 98.0%; decomposed ([1]; pH of 7, after 48 h): 98.1%; decomposed ([1]; pH of 8, after 48 h): 98.1%
2 | CCc1c2c(nc3ccc(OC(=O)N(CCOCCOC(=O)N(C)CCN(C)C)CCN(C)C(=O)OCc4ccc(NC(=O)[C@H](CCCNC(N)=O)NC(=O)[C@@H](NC(=O)CCCCCN5C(=O)C=CC5=O)C(C)C)cc4)cc13)-c1cc3c(c(=O)n1C2)COC(=O)[C@]3(O)CC [Compound of formula (1), maleimidohexanoic acid-L-valyl-L-citrulline-p-aminobenzyl-(N-methylethyldiethoxy-N,N,N-trimethylethylenediami ne)-camptothecin] | 97% | 18% | 75% | 1 | 0.9886 | 0.9761 | 0.9208 | 0.8682 | 0.7886 | 1 | 0.8789 | 0.8018 | 0.8219 | 0.2567 | 0.1222 | 1 | 0.5641 | 0.2841 | 0.1234 | 0.009607 | Remaining fraction T/T0 ([1]; pH = 8, 48 h): 0.01256; decomposed ([1]; pH of 6, after 48 h): 21.2%; decomposed ([1]; pH of 7, after 48 h): 87.8%; decomposed ([1]; pH of 8, after 48 h): 98.7%; Stability compared with CL2A-SN38 ([1]; weak acidic conditions): more stable than CL2A-SN38; Stability compared with CL2A-SN38 ([1]; weak acidic or neutral conditions): higher stability
3 | Sacituzumab govitecan | – | – | – | – | – | – | – | – | – | – | – | – | – | – | – | – | – | – | – | – | tumor shrinkage, share of patients (small cell lung cancer): 60%; control rate [2]: up to 43%; effective rate [3]: 30%; tumor shrinkage, share of patients [3]: 69.5%
